Columns and labels:
[1] = Study B: randomized, double-blind, placebo-controlled study, acute treatment of a single migraine attack; assay type: in vivo, human; conditions: for Absence of Most-Bothersome Migraine Associated Symptom at 2 hours after the initial dose: Odds Ratio (95% CI) / Pain Freedom at 2 hours after the initial dose: Odds Ratio (95% CI): mITT
Method: (§1) Study A and Study B were multicenter, randomized, double-blind, placebo-controlled, parallel-group, studies designed to evaluate the efficacy, safety, and tolerability of three doses of ubrogepant (25 mg, 50 mg and 100 mg) compared to placebo for the acute treatment of a single migraine attack. In Study A, patients were randomized (1:1:1) to 1 of 3 treatment groups: placebo, ubrogepant 50 mg, or ubrogepant 100 mg. In Study B, patients were randomized (1:1:1) to 1 of 3 treatment groups: placebo, ubrogepant 25 mg, or ubrogepant 50 mg. Patients were stratified by their previous response to triptans (triptan responder, triptan insufficient responder, triptan naïve) and their current use of prophylactic concomitant medication for migraine (yes/no). To be randomized, eligible patients had to be 18 to 75 years of age (inclusive), have a history of migraine with or without aura for at least 1 year consistent with a diagnosis according to the International Classification of Headache Disorders criteria, 3rd edition, beta version, and had to have experienced between 2 to 8 migraine attacks with moderate to severe headache pain in each of the 3 months before Screening (Visit 1). Patients who had clinically significant hematologic, endocrine, cardiovascular, cerebrovascular, pulmonary, renal, hepatic, gastrointestinal, or neurologic disease were excluded from the study. Study patients randomized to a treatment group had up to 60 days to treat a single qualifying migraine attack of moderate or severe pain intensity at home. In Study A, a total of 1672 patients were randomized to double-blind treatment (ITT population), and 1436 patients took at least 1 dose of double-blind IP (safety population). A total of 1327 treated patients recorded a baseline migraine headache severity measurement and at least 1 postdose migraine headache severity or migraine-associated symptom measurement within 2 hours after dosing (mITT population). In Study B, a total of 1,686 patients were randomized to double-blind treatment (ITT population), and 1,465 patients took at least 1 dose of double-blind IP (safety population). A total of 1355 treated patients recorded a baseline migraine headache severity measurement and at least 1 postdose migraine headache severity or migraine-associated symptom measurement within 2 hours after dosing (mITT population). The coprimary efficacy endpoints for the United States were pain freedom (PF) at 2 hours after the initial dose, defined as a reduction in headache severity from moderate/severe at baseline to no pain, at 2 hours after the initial dose and absence of the most bothersome migraine-associated symptom at 2 hours after the initial dose. The most bothersome migraine-associated symptom was identified at baseline for each patient.

[2] = Study A: randomized, double-blind, placebo-controlled study, acute treatment of a single migraine attack; assay type: in vivo, human; conditions: for Absence of Most-Bothersome Migraine Associated Symptom at 2 hours after the initial dose: Odds Ratio (95% CI) / Pain Freedom at 2 hours after the initial dose: Odds Ratio (95% CI): mITT
Method: as §1

[3] = 25 mg vs placebo, Triptan Insufficient Responder
[4] = 25 mg vs placebo, Triptan Responder
[5] = 25 mg, Triptan Insufficient Responder, N1=100, mITT
[6] = 50 mg vs placebo, Triptan Insufficient Responder
[7] = 50 mg vs placebo, Triptan Naïve
[8] = 50 mg vs placebo, Triptan Responder
[9] = 50 mg, Triptan Insufficient Responder, N1=110, mITT
[10] = 50 mg, Triptan Responder, N1=160, mITT
[11] = 100 mg vs placebo, Triptan Insufficient Responder
[12] = 100 mg vs placebo, Triptan Naïve
[13] = 100 mg vs placebo, Triptan Responder
[14] = 100 mg, Triptan Insufficient Responder, N1=126, mITT
[15] = 100 mg, Triptan Naïve, N1=149, mITT
[16] = 100 mg, Triptan Responder, N1=173, mITT

## C[C@@H]1[C@H](c2ccccc2)C[C@H](NC(=O)c2cnc3c(c2)C[C@@]2(C3)C(=O)Nc3ncccc32)C(=O)N1CC(F)(F)F [Ubrogepant, ubrogepant]
[1]; [3]
  Absence of Most-Bothersome Migraine Associated Symptom at 2 hours after the initial dose: Odds Ratio (95% CI): 1.65
  Pain Freedom at 2 hours after the initial dose: Odds Ratio (95% CI): 1.81
[1]; 25 mg vs placebo, Triptan Naive
  Absence of Most-Bothersome Migraine Associated Symptom at 2 hours after the initial dose: Odds Ratio (95% CI): 1.32
[1]; 25 mg vs placebo, Triptan Naïve
  Pain Freedom at 2 hours after the initial dose: Odds Ratio (95% CI): 1.50
[1]; [4]
  Absence of Most-Bothersome Migraine Associated Symptom at 2 hours after the initial dose: Odds Ratio (95% CI): 1.26
  Pain Freedom at 2 hours after the initial dose: Odds Ratio (95% CI): 1.52
[1]; [5]
  Absence of Most-Bothersome Migraine Associated Symptom at 2 hours after the initial dose: Responder rate (in parentheses): (37.0)
  Pain Freedom at 2 hours after the initial dose: Responder rate (in parentheses): (18.0)
[1]; 25 mg, Triptan Naive, N1=184, mITT
  Absence of Most-Bothersome Migraine Associated Symptom at 2 hours after the initial dose: Responder rate (in parentheses): (34.2)
[1]; 25 mg, Triptan Naïve, N1=184, mITT
  Pain Freedom at 2 hours after the initial dose: Responder rate (in parentheses): (25.5)
[1]; 25 mg, Triptan Responder, N1=150, mITT
  Absence of Most-Bothersome Migraine Associated Symptom at 2 hours after the initial dose: Responder rate (in parentheses): (32.0)
[1]; 25 mg, Triptan Responder, N1=151, mITT
  Pain Freedom at 2 hours after the initial dose: Responder rate (in parentheses): (16.6)
[1]; [6]
  Absence of Most-Bothersome Migraine Associated Symptom at 2 hours after the initial dose: Odds Ratio (95% CI): 1.72
  Pain Freedom at 2 hours after the initial dose: Odds Ratio (95% CI): 1.97
[1]; 50 mg vs placebo, Triptan Naive
  Absence of Most-Bothersome Migraine Associated Symptom at 2 hours after the initial dose: Odds Ratio (95% CI): 1.54
[1]; [7]
  Pain Freedom at 2 hours after the initial dose: Odds Ratio (95% CI): 1.22
[1]; [8]
  Absence of Most-Bothersome Migraine Associated Symptom at 2 hours after the initial dose: Odds Ratio (95% CI): 1.76
  Pain Freedom at 2 hours after the initial dose: Odds Ratio (95% CI): 2.19
[1]; [9]
  Absence of Most-Bothersome Migraine Associated Symptom at 2 hours after the initial dose: Responder rate (in parentheses): (38.2)
  Pain Freedom at 2 hours after the initial dose: Responder rate (in parentheses): (19.1)
[1]; 50 mg, Triptan Naive, N1=193, mITT
  Absence of Most-Bothersome Migraine Associated Symptom at 2 hours after the initial dose: Responder rate (in parentheses): (39.4)
[1]; 50 mg, Triptan Naïve, N1=194, mITT
  Pain Freedom at 2 hours after the initial dose: Responder rate (in parentheses): (23.2)
[1]; [10]
  Absence of Most-Bothersome Migraine Associated Symptom at 2 hours after the initial dose: Responder rate (in parentheses): (38.8)
  Pain Freedom at 2 hours after the initial dose: Responder rate (in parentheses): (21.9)
[2]; [6]
  Absence of Most-Bothersome Migraine Associated Symptom at 2 hours after the initial dose: Odds Ratio (95% CI): 1.80
  Pain Freedom at 2 hours after the initial dose: Odds Ratio (95% CI): 2.41
[2]; [7]
  Absence of Most-Bothersome Migraine Associated Symptom at 2 hours after the initial dose: Odds Ratio (95% CI): 1.48
  Pain Freedom at 2 hours after the initial dose: Odds Ratio (95% CI): 1.60
[2]; [8]
  Absence of Most-Bothersome Migraine Associated Symptom at 2 hours after the initial dose: Odds Ratio (95% CI): 1.85
  Pain Freedom at 2 hours after the initial dose: Odds Ratio (95% CI): 1.86
[2]; 50 mg, Triptan Insufficient Responder, N1=116, mITT
  Absence of Most-Bothersome Migraine Associated Symptom at 2 hours after the initial dose: Responder rate (in parentheses): (33.6)
[2]; 50 mg, Triptan Insufficient Responder, N1=118, mITT
  Pain Freedom at 2 hours after the initial dose: Responder rate (in parentheses): (13.6)
[2]; 50 mg, Triptan Naïve, N1=132, mITT
  Absence of Most-Bothersome Migraine Associated Symptom at 2 hours after the initial dose: Responder rate (in parentheses): (42.4)
[2]; 50 mg, Triptan Naïve, N1=133, mITT
  Pain Freedom at 2 hours after the initial dose: Responder rate (in parentheses): (24.8)
[2]; 50 mg, Triptan Responder, N1=171, mITT
  Pain Freedom at 2 hours after the initial dose: Responder rate (in parentheses): (18.7)
[2]; 50 mg, Triptan Responder, N1=172, mITT
  Absence of Most-Bothersome Migraine Associated Symptom at 2 hours after the initial dose: Responder rate (in parentheses): (39.0)
[2]; [11]
  Absence of Most-Bothersome Migraine Associated Symptom at 2 hours after the initial dose: Odds Ratio (95% CI): 1.50
  Pain Freedom at 2 hours after the initial dose: Odds Ratio (95% CI): 2.49
[2]; [12]
  Absence of Most-Bothersome Migraine Associated Symptom at 2 hours after the initial dose: Odds Ratio (95% CI): 1.22
  Pain Freedom at 2 hours after the initial dose: Odds Ratio (95% CI): 1.26
[2]; [13]
  Absence of Most-Bothersome Migraine Associated Symptom at 2 hours after the initial dose: Odds Ratio (95% CI): 2.18
  Pain Freedom at 2 hours after the initial dose: Odds Ratio (95% CI): 2.89
[2]; [14]
  Absence of Most-Bothersome Migraine Associated Symptom at 2 hours after the initial dose: Responder rate (in parentheses): (30.2)
  Pain Freedom at 2 hours after the initial dose: Responder rate (in parentheses): (14.3)
[2]; [15]
  Absence of Most-Bothersome Migraine Associated Symptom at 2 hours after the initial dose: Responder rate (in parentheses): (37.6)
  Pain Freedom at 2 hours after the initial dose: Responder rate (in parentheses): (20.8)
[2]; [16]
  Absence of Most-Bothersome Migraine Associated Symptom at 2 hours after the initial dose: Responder rate (in parentheses): (43.4)
  Pain Freedom at 2 hours after the initial dose: Responder rate (in parentheses): (26.6)
